From patent US9193718B2, “Quinazoline derivative and application thereof” (FUJIAN INSTITUTE OF RESEARCH ON THE STRUCTURE OF MATTER, …, priority 2012, dated 2015)

Each molecule was assayed against T1, Tyrosine kinase (EGFR) (Homo sapiens, UniProt P00533) (assay: EGFR tyrosine kinase inhibition by Enzyme-Linked Immunosorbent assay). Conditions: compound at a concentration of 100 μM; ATP 5 μM; substrate poly(Glu,Tyr)4:1.
T1 construct: made in house
Type: biochemical
Source text: Tyrosine kinase (EGFR) was expressed using a baculovirus expression system, and purified by using a Ni-NTA affinity chromatography. After tested, it was consistent with experimental standard. Poly(Glu,Tyr)4:1 (Sigma), Monoclonal Anti-Phosphotyrosine antibody PY99 (Santa Cruz), horseradish peroxidase-labeled goat anti-mouse IgG (Calbiochem), ATP, DTT, OPD (Amresco), microplates (Corning). Other reagents were all commercially available with analytical grade purity, which were not treated before use if no special instructions present. Isopropanol was dried with molecular sieves before use.
Quinazoline compounds represented by formula (I) and their pharmaceutically acceptable salts according to the present invention are used as EGFR inhibitors. The activity of the particularized compounds for inhibiting EGFR was determined by Enzyme-Linked Immunosorbent assay.
Detailed experimental procedure is as follows:
(1) Kinase reaction substrate poly(Glu,Tyr)4:1 was diluted to 20 μg/mL with potassium-free PBS, and the microplates were coated. After the reaction was for 12-16 h at 37° C., the liquid in the wells was removed.
(2) The plates were washed with T-PBS for three times, 10 min each time.
(3) The microplates were dried in an oven at 37.
(4) The samples to be tested were added into the wells of the coated microplates (wherein the samples to be tested were formulated to a 1×10^−2M stock solution with DMSO, and diluted to the desired concentration with reaction buffer before use. The resulted solution was added into the wells and then allowed to achieve the corresponding final concentration in 100 μL reaction system.
(5) the addition of ATP and tested tyrosine kinases
ATP solution diluted with reaction buffer (the final concentration of ATP is 5 μM) and the tested tyrosine kinases solution diluted with reaction buffer were added. The total volume of the reaction is 100 μL. Meanwhile the negative control wells and the control wells without enzyme were set up.
(6) The reaction system was placed in a wet box, and shaked for 1 hour at 37° C. shielding from light. After the reaction was complete, the plates were washed with T-PBS for three times.
(7) Antibody PY99 was added into each well (100 μL/well); and the plates were shaked for 30 min at 37° C. After the reaction was complete, the plates were washed with T-PBS for three times.
(8) 100 μL horseradish peroxidase-labeled goat anti-mouse IgG was added into each well, and the plates were shaked for 30 min at 37° C. The plates were washed with T-PBS for three times.
(9) 100 μL OPD developing liquid was added in each well, and was reacted for 1-10 min at room temperature shielding from light.
(10) 2M H2SO4 was added into each well to terminate the reaction. A490 value was determined using wavelength-tunable microplate reader. The inhibition ratio can be calculated by the following formula: […]
According to the above-described activity test method, the activity of inhibiting EGFR enzyme of the compounds represented by formula (I) or salts thereof were calculated.

In order of rising “EGFR inhibition rate (%)” value:
1. COc1cc2ncnc(OCc3cc(-c4ccccc4Cl)no3)c2cc1OC [Compound Q-18]  1.2%
2. COCCOc1cc2ncnc(OCc3cc(-c4ccc(Br)cc4)no3)c2cc1OCCOC [Compound Q-35]  6.4%
3. COc1ccc(-c2cc(COc3ncnc4ccccc34)on2)cc1 [Compound Q-3]  7.3%
4. COCCOc1cc2ncnc(OCc3cc(-c4ccc(Cl)cc4Cl)no3)c2cc1OCCOC [Compound Q-34, (6,7-bis(2-methoxyethoxy))-4-((3-(2,4-dichlorophenyl)-isoxazol-5-yl)-methoxy-)-quinazoline]  7.8%
5. COCCOc1cc2ncnc(OCc3cc(-c4ccccc4Cl)no3)c2cc1OCCOC [Compound Q-32]  11.8%
6. (6,7-bis(2-methoxyethoxy))-4-((3-(4-chlorophenyl)-isoxazol-5-yl))-methoxy-)-quinazoline [Compound Q-33]  14.1%
7. COc1cc2ncnc(OCc3cc(-c4ccc(Cl)cc4)no3)c2cc1OC [Compound Q-19]  14.5%
8. Brc1ccc(-c2cc(COc3ncnc4ccccc34)on2)cc1 [Compound Q-7]  15.7%
9. Clc1ccc(-c2cc(COc3ncnc4ccccc34)on2)cc1 [Compound Q-5]  16.7%
10. c1ccc(-c2cc(COc3ncnc4ccccc34)on2)cc1 [Compound Q-1, 4-((3-phenyl-isoxazol-5-yl)-methoxy-)-quinazoline]  18.0%
11. COCCOc1cc2ncnc(OCc3cc(-c4ccc(C)cc4)no3)c2cc1OCCOC [Compound Q-30, (6,7-bis(2-methoxyethoxy))-4-((3-(4-methylphenyl)-isoxazol-5-yl)-methoxy-)-quinazoline]  20.4%
12. Clc1ccc(-c2cc(COc3ncnc4ccccc34)on2)c(Cl)c1 [Compound Q-6]  22.7%
13. Clc1ccccc1-c1cc(COc2ncnc3ccccc23)on1 [Compound Q-4]  25.8%
14. COCCOc1cc2ncnc(OCc3cc(-c4ccccc4)no3)c2cc1OCCOC [Compound Q-29, (6,7-bis(2-methoxyethoxy))-4-((3-phenyl-isoxazol-5-yl)-methoxy-)-quinazoline]  27.7%
15. COc1cc2ncnc(OCc3cc(-c4ccc(Cl)cc4Cl)no3)c2cc1OC [Compound Q-20]  29.8%
16. COc1cc2ncnc(OCc3cc(-c4ccccc4)no3)c2cc1OC [Compound Q-15, 6,7-dimethoxy-4-((3-phenyl-isoxazol-5-yl)-methoxy-)-quinazoline]  30.7%
17. COc1cc2ncnc(OCc3cc(-c4ccc(Br)cc4)no3)c2cc1OC [Compound Q-21]  30.9%
18. COCCOc1cc2ncnc(OCc3cc(-c4ccc(OC)cc4)no3)c2cc1OCCOC [Compound Q-31]  38.2%
19. COc1ccc(-c2cc(COc3ncnc4cc(OC)c(OC)cc34)on2)cc1 [Compound Q-17]  47.0%
